Test results: patent US12528825B2, “Compounds and uses thereof” (Foghorn Therapeutics Inc., priority 2020, dated 2026)
“Also recorded” adds a separate entry of the source.

Tests used:
[1] = test system: synovial sarcoma cell lines (SYO1, Yamato, HS-SY-II, and ASKA); assay: Growth of synovial sarcoma cell lines (IncuCyte confluency, crystal violet, colony imaging); type: cell-based; conditions: 1 μM or indicated concentrations, FIGS. 4-6
Description: (§1) Cells were treated with DMSO or the BRD9 degrader, Compound 1, at indicated concentrations, and proliferation was monitored from day 7 to day 14 by measuring confluency over time using an IncuCyte live cell analysis system (FIG. 4). Growth medium and compounds were refreshed every 3-4 days.
(§2) Cells were seeded into 12-well plates and treated with DMSO, 1 μM BRD9 inhibitor, Compound 2 (also known as BI-7273, see Martin et al, J Med Chem. 59(10):4462-4475 (2016); see structure of compound 2 below), or 1 μM BRD9 degrader, Compound 1.
(§3) The number of cells was optimized for each cell line. Growth medium and compounds were refreshed every 3-5 days. SYO1, Yamato, A549, 293T and HS-SY-II cells were fixed and stained at day 11. ASKA cells were fixed and stained at day 23. Staining was done by incubation with crystal violet solution (0.5 g Crystal Violet, 27 ml 37% Formaldehyde, 100 mL 10×PBS, 10 mL Methanol, 863 dH20 to 1 L) for 30 min followed by 3× washes with water and drying the plates for at least 24 h at room temperature. Subsequently plates were scanned on an Odyssey CLx Imaging system (FIG. 5).
(§4) Cells were seeded into 96-well ultra-low cluster plate (Costar, #7007) in 200 μL complete media and treated at day 2 with DMSO, Staurosporin, or BRD9 degrader, Compound 1, at indicated doses (FIG. 2C). Media and compounds were changed every 5 d and cell colonies were imaged at day 14.

[2] = test system: non-synovial control cancer cell lines (293T, A549, G401); assay: Growth of non-synovial control cancer cell lines (crystal violet, colony imaging); type: cell-based; conditions: 1 μM or indicated doses, FIGS. 4-6
Description: as §1, §2, §3, §4

[3] = test system: synovial sarcoma cell lines (SYO1, HS-SY-II, and ASKA); assay: Crystal violet growth assay, synovial sarcoma cell lines, day 14; type: cell-based; conditions: for inhibition of growth of synovial sarcoma cell lines: SYO1, HS-SY-II, ASKA, treated daily, indicated concentrations, day 14, FIG. 7
Description: (§5) Procedure: Cells were seeded into 6-well or 12-well plates and were treated daily with a BRD9 degrader (Compound 1), a bromo-domain BRD9 binder (Compound 2), E3 ligase binder (lenalidomide), DMSO, or staurosporin (positive control for cell killing), at indicated concentrations. The number of cells was optimized for each cell line. Growth media was refreshed every 5 days. By day 14, medium was removed, cells were washed with PBS, and stained using 500 μL of 0.005% (w/v) crystal violet solution in 25% (v/v) methanol for at least 1 hour at room temperature. Subsequently plates were scanned on an Odyssey CLx Imaging system.

[4] = test system: non-synovial control cancer cell lines (RD, HCT116, and Calu6); assay: Crystal violet growth assay, non-synovial control cancer cell lines, day 14; type: cell-based; conditions: treated daily, indicated concentrations, FIG. 8
Description: as §5

SYO1 cells [5] = assay: Cell cycle analysis (Click-iT Plus EdU flow cytometry); type: cell-based, human; conditions: 200 nM or 1 μM, 8 or 13 days, compared to DMSO and lenalidomide
Description: (§6) Procedure: SYO1 cells were treated for 8 or 13 days with DMSO, a BRD9 degrader (Compound 1) at 200 nM or 1 μM, or an E3 ligase binder (lenalidomide) at 200 nM. Compounds were refreshed every 5 days. Cell cycle analysis was performed using the Click-iT™ Plus EdU Flow Cytometry Assay (Invitrogen). The apoptosis assay was performed using the Annexin V-FITC Apoptosis Detection Kit (Sigma A9210). Assays were performed according to the manufacturer's protocol.

SYO1 cells [6] = assay: Apoptosis assay (Annexin V-FITC); type: cell-based, human; conditions: 200 nM or 1 μM, 8 days, compared to DMSO controls
Description: as §6

[7] = test system: SYO-1 human biphasic synovial sarcoma tumor cells; assay: SYO-1 synovial sarcoma xenograft tumor growth in NOD SCID mice; type: in vivo; conditions: 1 mg/kg, i.p., daily, 3 weeks, SYO-1 xenograft
Description: (§7) Method: NOD SCID mice (Beijing Anikeeper Biotech, Beijing) were inoculated subcutaneously on the right flank with the single cell suspension of SYO-1 human biphasic synovial sarcoma tumor cells (5×106) in 100 μL Dulbecco's Modified Eagle Medium (DMEM) with 10% fetal bovine serum (FBS). The mice were randomized into either control group [10% dimethyl sulfoxide (DMSO), 40% polyethylene glycol (PEG400) and 50% water], or treatment group D1 when the mean tumor size reached about 117 mm^3. Mice were dosed daily through intraperitoneal (i.p.) route over the course of 3 weeks. All dose volumes were adjusted by body weights in terms of mg/kg.

[8] = Tolerability (% body weight change) in the SYO-1 xenograft study; type: in vivo; conditions: 1 mg/kg, i.p., daily, 3 weeks; NOD SCID mice
Description: as §7

BRD9 = biological target: T1, BRD9 (Homo sapiens, UniProt Q9H8M2); assay: BRD9 western blot in synovial sarcoma tumors in vivo; design: species or system mice; conditions: 1 mg/kg, i.p., 4 weeks; tumors collected 8, 72 and 168 hours post last dose; effect up to 168 hours after dose
T1 construct: Tumors were lysed with 1× RIPA lysis buffer; from tissue; host or cells: synovial sarcoma tumours collected from treated mice
T1 sequence (Q9H8M2 1-597): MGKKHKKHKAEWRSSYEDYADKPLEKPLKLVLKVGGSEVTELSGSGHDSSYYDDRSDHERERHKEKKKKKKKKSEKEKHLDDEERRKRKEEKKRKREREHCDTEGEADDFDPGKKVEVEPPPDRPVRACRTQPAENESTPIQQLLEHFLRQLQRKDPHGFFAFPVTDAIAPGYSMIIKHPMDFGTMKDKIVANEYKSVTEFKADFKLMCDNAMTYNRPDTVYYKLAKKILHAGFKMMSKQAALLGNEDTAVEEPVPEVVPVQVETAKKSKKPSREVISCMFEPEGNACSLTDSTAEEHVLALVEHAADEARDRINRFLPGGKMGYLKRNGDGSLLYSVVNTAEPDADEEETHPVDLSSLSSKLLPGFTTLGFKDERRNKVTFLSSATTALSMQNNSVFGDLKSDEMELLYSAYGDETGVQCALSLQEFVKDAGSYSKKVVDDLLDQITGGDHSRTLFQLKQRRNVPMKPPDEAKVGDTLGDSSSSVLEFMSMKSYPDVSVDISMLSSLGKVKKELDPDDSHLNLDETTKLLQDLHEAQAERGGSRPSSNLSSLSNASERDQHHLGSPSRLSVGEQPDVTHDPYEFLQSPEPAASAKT
Description: Method: Mice were treated with D1, 1 mg/kg, i.p. for 4 weeks. Mice were then euthanized, and tumors were collected at 8 hours, 72 hours, and 168 hours post last dose. Tumors were lysed with 1× RIPA lysis buffer (Boston BioProducts, BP-115D) with protease and phosphatase protein inhibitor (Roche Applied Science #04906837001 & 05892791001). Equal amounts of lysate (30 μg) were loaded in 4-12% Bis-Tris Midi Protein Gels in 1×MOPS buffer; samples ran at 120 V for 120 minutes. Protein was transferred to membrane with TransBlot at 250 mA for 150 minutes, and then membranes were blocked with Odyssey blocking buffer for 1 hour at room temperature. Membranes were hybridized overnight in cold room with primary antibodies. Images acquired using Li-COR imaging system (Li-COR Biotechnology, Lincoln, Nebraska).

Row | SMILES | inhibition of growth of synovial sarcoma cell lines [1] | inhibition of growth of non-synovial control cancer cell lines [2] | inhibition of growth of synovial sarcoma cell lines [3] | growth inhibition compared with the other test compounds ([3]; all synovial cell lines) | inhibition of growth of non-synovial control cancer cell lines [4] | numbers of cells in the S-phase of the cell cycle (SYO1 cells [5]) | numbers of early- and late-apoptotic cells (SYO1 cells [6]) | tumor growth [7] | tolerability based on % body weight change [8] | BRD9 level in tumor (western blot) (BRD9)
1 | COc1cc(-c2cn(C)c(=O)c3cnccc23)cc(OC)c1CN(C)CC(=O)NCCOCCOCCNc1cccc2c1C(=O)N(C1CCC(=O)NC1=O)C2=O (centres unmarked) [Compound 1] | inhibition of the growth of the cells | does not result in inhibition of the growth | inhibition of the growth of the cells | most significant growth inhibition | did not result in inhibition of the growth | reduced numbers of cells in the S-phase | increased numbers of early- and late-apoptotic cells | – | – | –
2 | COc1cc(-c2cn(C)c(=O)c3cnccc23)cc(OC)c1CN(C)C [Compound 2] | inhibition of the growth of the cells | does not result in inhibition of the growth | inhibition of the growth of the cells | – | did not result in inhibition of the growth | – | – | – | – | –
3 | COc1cc(-c2cn(C)c(=O)c3cc(C(=O)NC4CCN(C5CCN(c6ccc7c(c6)C(=O)N(C6CCC(=O)NC6=O)C7)CC5)CC4(F)F)sc23)cc(OC)c1CN(C)C (centres unmarked) [Compound D1, 7-[4-[(dimethylamino)methyl]-3,5-dimethoxyphenyl]-N-[1′-[2-(2,6-dioxopiperidin-3-yl)-3-oxo-1H-isoindol-5-yl]-3,3-difluoro-[1,4′-bipiperidin]-4-yl]-5-methyl-4-oxothieno[3,2-c]pyridine-2-carboxamide] | – | – | – | – | – | – | – | tumor growth inhibition | well tolerated | complete degradation; also recorded: BRD9 inhibition
